Where two headings read alike, the source gives them in different places.
Columns and labels:
NADPH/NADP+ ratio = test: Cellular effect of anti-folate therapy on the NADPH/NADP+ ratio; format: cell-based; conditions: methotrexate 500 nM
HEK293T cells [1] = test: U13C tracer labeling of the one-carbon unit pool; format: cell-based; conditions: 48 h, ADP purine ring and dTTP methyl labeling
Protocol: In order to determine contribution of the single carbon, cells were cultured with media containing [U ^13C] serine for 48 h, washed three times with cold PBS to remove extracellular serine, extracted, and the intracellular labeling pattern analyzed by LC-MS for ATP (representing purines; there is no labeling of ribose-phosphate based on LC-MS measurements), glycine and serine. See e.g., Fan et al., Nature 510: 298-302, 2014.
Purine ring labeling is indicative of formyl-THF labeling.

ΔMTHFD2 cells = conditions: addition of formate to ΔMTHFD2 cells (from HEK293T)
Protocol: AICAR in wild type HEK293T cells and cells lacking a key enzyme producing formyl-THF, MTHFD2, was measured by LC-MS. See e.g., Fan et al., Nature 510: 298-302, 2014. […] The ΔMTHFD2 cells lacking MTHFD2 were produced from HEK293T cells by CRISPR (clustered regularly interspaced short palindromic repeat)-mediated knockout.

HEK293T cells [2] = conditions: 24 h, addition of glycine (5 mM)
Protocol: (§2) Metabolites were then harvested by quickly aspirating media, washing with PBS buffer, and immediately adding −80° C. 80:20 methanol: water extraction solution at −80° C. Following quenching, the tissue culture dish was incubated at −80° C. for 15 min, and then the cells were scraped from the plate. After centrifuging the cell suspension at 5300×g for 10 min, the supernatant was kept and the debris was re-extracted with −80° C. 80:20 methanol:water. The resulting suspension was centrifuged again and the supernatant was combined with first supernatant. […] LC separation was by reversed-phase ion-pairing chromatography with tributylamine as the ion-pairing agent. MS analysis was on a stand-alone orbitrap mass analyzer (Thermo Scientific) operated in negative ion mode and scanning from m/z 85-1000 at 1 Hz at 100,000 resolution. Data were analyzed using the MAVEN software suite. All observed LC-MS peaks were in analyzed, including those of roughly 100 known water-soluble metabolites.
HEK293T cells were cultured in the conditions described in Example 2. In addition to measuring metabolite concentrations, important metabolite ratios, e.g., NADH/NAD+, NADPH/NADP+, ATP/ADP, were calculated.

HEK293 cell = conditions: 3 days
Excerpt: (§1) It is hypothesized that high glycine is driving the backwards SHMT reaction while also impairing the forward reaction by product inhibition.

HEK293 cells = conditions: DMEM lacking serine, 3 days
Excerpt: as §1

HCT116 cells = conditions: HCT116 xenograft in CD-1-Foxn1nu female mice; high (2×-5× normal) glycine diets
Protocol: Approximately 3×10^6 HCT116 cells (or other tumor-forming transformed cells) are injected on the flank of approximately 8 week CD-1-Foxn1nu female mice (Charles River) or similar rodents. To compare cell lines or gather data more rapidly, different cell lines can be ejected on the 2 flanks (right and left) of each mouse. […] Numbers of mice are selected in order to obtain appropriate statistical power, with 6-20 mice per group typical.

HEK293T cells [3] = conditions: absence of exogenous serine, 0.4 mM glycine, or addition of 2 mM or 5 mM glycine
Protocol: Cell growth was measured in an incubator containing 5% CO2 at 37° C.

HEK293T cells [4] = conditions: 24 h, +5 mM glycine, DMEM with or without serine
Protocol: as §2

HEK293T cells [5] = tested on: HEK293T cells
Protocol: To measure cellular folates, media was removed from HEK293T cells, and replaced with 50:50 methanol:water with 25 mM ammonium acetate and 1% sodium ascorbate, at −20° C. […] After 15 min on ice, the cells were scraped from the dish to further enhance extraction, and the cell-liquid mixture was centrifuged to remove particulate matter. The particulate matter was re-extracted with the same solvent for 15 minutes, and the 2 extracts were combined. The resulting combined extract was treated with rat serum to hydrolyze the polyglutamate chains of folate polyglutamates. […] The resulting mixture was passed through a phenyl solid phase extraction column which removes proteins, highly soluble metabolites, salts and further concentrates the folate species, which were then analyzed by in high resolution LC-MS.

tumor growth = conditions: patients; current best therapy plus glycine supplementation therapy
Excerpt: Individuals providing informed consent to enter the trial are randomized to the current best therapy or current best therapy plus glycine supplementation therapy arms.
The glycine supplementation therapy arm involves providing increased total intake of glycine and/or decreased total intake of serine so as to achieve an increased ratio of glycine to serine intake. The clinical course of patients enrolled in the trial is monitored with respect to endpoints selected based on the disease state, e.g., for stage IV lung cancer, changes in tumor volume, progression-free survival, and overall survival, as well as side effects of the treatment regimen.

CN(Cc1cnc2nc(N)nc(N)c2n1)c1ccc(C(=O)N[C@@H](CCC(=O)O)C(=O)O)cc1 [methotrexate] was tested, and the “NADPH/NADP+ ratio” value (NADPH/NADP+ ratio) was “decrease”.

For N[C@@H](CO)C(=O)O [serine, reference compound], the “contribution to the cellular one-carbon unit pool” value (HEK293T cells [1]) was “contributes to the cellular one-carbon unit pool”.

In the case of O=CO [formate], the AICAR accumulation (ΔMTHFD2 cells) is reported as “eliminates the AICAR accumulation”.

In the case of NCC(=O)O [glycine], the ATP/ADP ratio (HEK293T cells [2]) is reported as “significantly decreased”, the “decrease in the NADPH/NADP+ ratio” value (HEK293T cells [2]) is reported as “approximately 2 fold” and the “decrease in final cell number relative to growth in complete DMEM” value (HEK293 cell; DMEM lacking serine, 1× glycine) is reported as “approximately 30%”. For the same compound, the “decrease in final cell number relative to growth in complete DMEM” value (HEK293 cell; serine removal and addition of 12× glycine) was “approximately 70%”, the “Relative NADPH/NADP+” value (HEK293 cells; 1× glycine, complete DMEM approximately 1) was “approximately 0.7” and the “Relative NADPH/NADP+” value (HEK293 cells; addition of 12× glycine) was “approximately 0.45”. For the same compound, the “tumor growth and tumor progression” value (HCT116 cells) was “will reduce tumor growth and slow tumor progression”, the “contribution to the cellular one-carbon unit pool” value (HEK293T cells [1]) was “does not contribute one carbon units” and the transformed cell growth (HEK293T cells [3]) was “inhibits transformed cell growth”. For the same compound, the intracellular serine levels (HEK293T cells [4]) was “enhanced”, the AICAR (HEK293T cells [5]; glycine addition) was “rise” and the “Formyl-THF and methyl-THF levels” value (HEK293T cells [5]; presence of glycine when serine is absent, 1× and 10× relative to standard DMEM) was “decrease”. For the same compound, the “tumor growth and tumor progression” value (tumor growth) was “will reduce tumor growth and slow tumor progression”.
